Data on 1 compound can be found in article PMC6561935, “Hsp90 middle domain phosphorylation initiates a complex conformational program to recruit the ATPase-stimulating cochaperone Aha1” (Nature Communications, 2019).

The target of assay [1] is T1, Hsp90 (human Hsp90α) (Homo sapiens, UniProt P07900).
T1 construct: gene HSP90AA1; purified full-length Hsp90α, C-terminally dimerized homodimer
Put plainly: isothermal titration calorimetry. It is filed as binding. (In general: Isothermal titration calorimetry measures the heat released or taken up as one component is titrated into another.)

In assay [2] the target is T2, Hsp90 (human Hsp90α) (Homo sapiens, UniProt P07900, H210A).
T2 construct: gene HSP90AA1; purified full-length Hsp90α, C-terminally dimerized homodimer
Put plainly: isothermal titration calorimetry. It is filed as binding.

`Nc1ncnc2c1ncn2[C@@H]1O[C@H](COP(=O)(O)OP(=O)(O)NP(=O)(O)O)[C@@H](O)[C@H]1O` [AMPPNP]: the Kd (usually the equilibrium constant for the complex coming apart) was found to be 220 ± 37 µM in assay [1] and 170 ± 9.8 µM in assay [2].
